Laboratory results taken from patent publication US4690945A, “Process for the preparation of 5'-substituted 2-(3'-thienyl)propionic acids” (Laboratorios Madaus Cerafarm, S.A., priority 1981, dated 1987).
“Also recorded” adds a separate entry of the source.

Tests used:
[1] = test system: rat leg edema induced by carrageenin; assay: carrageenin edema procedure on rats' legs (Δ volume), anti-inflammatory action; assay type: in vivo; parameters: key to Anti-inflammatory action, Δ volume: +++: Intense action; ++: Medium action; +: Minimal action; ±: Doubtful action; -: Negative action; --: Not tested; conditions: per os, 3 hours; for Anti-inflammatory action, Δ volume: class symbol; for ED50: po
Experimental: (§1) The pharmacological tests were performed on rats and mice, using the carrageenin edema procedure on rats' legs and backs by the test for anti-inflammatory action and the acetic acid contorsion and hot plate tests on mice for the purpose of testing analgesic action.
(§2) In the anti-inflammatory action test, the test was performed on rat leg edema induced by carrageenin, administering the compounds per os and measuring the volume of the edema 3 hours later by plethysmography.
(§3) The results obtained in both tests are expressed as a percentage of inhibition of the edema or abscess, and were better than 30% in comparison with a control group.

[2] = test system: thermal pain stimulus (hot plate); assay: hot plate test on mice, analgesic action; assay type: in vivo; parameters: key: +++: Intense action; ++: Medium action; +: Minimal action; ±: Doubtful action; -: Negative action; --: Not tested; conditions: class symbol
Experimental: as §1
(§4) For the examination of analgesic action, the acetic acid and hot plate tests were used.
(§5) In the acetic acid test, the number of contorsions (stretching) is determined, which are produced for 30 minutes following intraperitoneal administration of dilute acetic acid. Analgesic action is also tested by the hot plate test in which the pain stimulus is thermal, the time being measured in seconds which the animal takes to respond to the stimulus by licking its feet.

[3] = test system: carrageenin abscess on rats' backs; assay: carrageenin abscess test on rats' backs (Δ abscess), anti-inflammatory action; assay type: in vivo; parameters: key to Anti-inflammatory action, Δ abscess: +++: Intense action; ++: Medium action; +: Minimal action; ±: Doubtful action; -: Negative action; --: Not tested; conditions: rat back carrageenin abscess, weighed 24 hours after administration; for Anti-inflammatory action, Δ abscess: class symbol
Experimental: as §1
(§6) The anti-inflammatory action of these compounds was also examined by the carrageenin abscess test on rats' backs, the abscess being weighed 24 hours after administration of the product.
as §3

[4] = acute toxicity (DL50 / LD50); conditions: mouse, in vivo
From the text: Most of the compounds described in these examples have been tested pharmacologically and toxicologically (DL50) according to the methods indicated on pages 5 to 7, and the results are summarized in the appended table.

[5] = overall pharmacological (anti-inflammatory and analgesic) action, tests on rats and mice; assay type: in vivo; conditions: for anti-inflammatory activity (in words): in mammals; for pharmacological action (in words): analgesic and anti-inflammatory
Experimental: as §1, §2, §6, §4, §5

[6] = test system: contorsions (stretching) induced by intraperitoneal dilute acetic acid; assay: acetic acid contorsion test on mice, analgesic action; assay type: in vivo; parameters: key to Analgesic action, Acetic acid: +++: Intense action; ++: Medium action; +: Minimal action; ±: Doubtful action; -: Negative action; --: Not tested; conditions: for ED50: Mus musculus, ip, 0.5 h; for ED50 / Analgesic action, Acetic acid: mice, contorsions during 30 minutes after i.p. acetic acid; for analgesic action (in words): acetic acid and hot plate tests; for Analgesic action, Acetic acid: class symbol
Experimental: as §5, with “The pharmacological tests were performed on rats and mice, using the carrageenin edema procedure on rats' legs and backs by the test for anti-inflammatory action and the acetic acid contorsion and hot plate tests on mice for the purpose of testing analgesic action. For the examination of analgesic action, the acetic acid and hot plate tests were used. […] In” for “In”

SMILES | Anti-inflammatory action, Δ volume [1] | Analgesic action, Plate [2] | Anti-inflammatory action, Δ abscess [3] | LD50 [4] | anti-inflammatory activity (in words) [5] | ED50 [1] | pharmacological action (in words) [5] | anti-inflammatory activity (in words) ([5]; listed as II) | ED50 [6] | analgesic action (in words) [6] | Analgesic action, Acetic acid [6] | ED50 [3] | anti-inflammatory activity (in words) ([5]; listed as I)
CC(C)Cc1cc(C(C)C(=O)O)cs1 (stereo not shown) [LMC-VI] | + | + | + | > 1000 mg/kg | – | – | – | – | – | – | – | – | –
CC(C)C(=O)c1cc(C(C)C(=O)O)cs1 (stereo not shown) [LMC-V, 2-(5'-isobutyryl-3'-thienyl)propionic acid] | ++ | + | + | ~1500 mg/kg | – | – | – | – | – | – | – | – | –
CC(C(=O)O)c1csc(Cc2ccccc2)c1 (stereo not shown) [LMC-VII, 2-(5'-benzyl-3'-thienyl)propionic acid] | + | – | – | ~1500 mg/kg | – | – | – | – | – | – | – | – | –
CC(C(=O)O)c1csc(C(=O)c2ccccc2)c1 (stereo not shown) [A] | – | – | – | – | potent anti-inflammatory activity | – | – | – | – | – | – | – | –
CC(C(=O)O)c1csc(C(=O)c2ccc(Cl)cc2)c1 (stereo not shown) [LMC-II, 2-(5'-(4"-chloro)benzoyl-3'-thienyl)propionic acid] | +++ | – | +++ | ~1200 mg/kg | – | 17.3 mg/kg | notable pharmacological action, though it is inferior to that of compound I; also recorded: most active compounds | anti-inflammatory activity in mammals | 69.6 mg/kg | have an analgesic action | +++ | 23.5 mg/kg | –
CC(C(=O)O)c1csc(C(=O)c2ccccc2)c1 (stereo not shown) [LMC-I, 2-(5'-benzoyl-3'-thienyl)propionic acid] | +++ | – | +++ | ~400 mg/kg | – | 7.3 mg/kg | notable analgesic and anti-inflammatory action; also recorded: most active compounds | – | 50 mg/kg | have an analgesic action | +++ | 12.5 mg/kg | anti-inflammatory activity in mammals
CC(C(=O)O)c1csc(C(=O)c2ccc(Cl)cc2Cl)c1 (stereo not shown) [LMC-III, 2-(5'-(2",4"-dichloro)benzoyl-3'-thienyl)propionic acid] | ± | + | + | ~1000 mg/kg | – | – | – | – | – | – | + | – | –
Cc1ccc(C(=O)c2cc(C(C)C(=O)O)cs2)cc1 (stereo not shown) [LMC-IV] | +++ | ++ | ++ | ~1200 mg/kg | – | – | best representative of this action | – | – | – | ++ | – | –
CC(C(=O)O)c1csc(C(=O)c2ccc(Cl)cc2)c1 (stereo not shown) [B] | – | – | – | – | potent anti-inflammatory activity | – | – | – | – | – | – | – | –
